In article PMC8625207, “Antikinetoplastid Activity of Sesquiterpenes Isolated from the Zoanthid Palythoa aff. clavata” (Pharmaceuticals, 2021):

How the values were obtained:
[1] = system: promastigotes of Leishmania donovani strain (MHOM/IN/90/GE1F8R); assay: alamarBlue activity against promastigotes of L. donovani; assay type: cell-based; details: for IC50: Leishmania donovani, 72 h of incubation, mean with standard deviation; for Promastigotes L. donovani SI: selectivity index CC50/IC50 (macrophages J744A.1 vs parasite)
Procedure: (§1) For the anti-leishmanicidal experiments, promastigotes and amastigotes of Leishmania amazonensis strain (MHOM/BR/77/LTB0016) and promastigotes of Leishmania donovani strain (MHOM/IN/90/GE1F8R) were used, and they were maintained in RPMI 1640 medium (Gibco, Waltham, MA, USA) at 26 °C. For the trypanocidal experiments, epimastigotes of Trypanosoma cruzi (Y strain) were used, and they were maintained in liver infusion tryptose (LIT) medium supplemented with 10% of fetal bovine serum (FBS) at 26 °C. Murine macrophages J774A.1 (ATCC #TIB-67), maintained in DMEM medium at 37 °C with 5% CO2, were used for the cytotoxic activity assays.
(§2) For the activity against extracellular parasites of kinetoplastid, Leishmania and Trypanosoma parasites, in a 96-well plate, serial dilutions of the compounds were added with dilutions of 10^5 parasites per well and a 10% of alamarBlue Cell Viability Reagent® (Thermo Fisher Scientific, Waltham, MA, USA). After 72 h of incubation at 26 °C, the fluorescence of each well was measured in the EnSpire Multimode Plate Reader® (PerkinElmer, Thermo Fisher Scientific, Madrid, Spain). The inhibitory concentration 50 (IC50) was calculated by nonlinear regression analysis.

[2] = system: promastigotes of Leishmania amazonensis strain (MHOM/BR/77/LTB0016); assay: alamarBlue activity against promastigotes of L. amazonensis; assay type: cell-based; details: for IC50: Leishmania amazonensis, 72 h of incubation, mean with standard deviation; for Promastigotes L. amazonensis SI: selectivity index CC50/IC50
Procedure: as §1, §2

[3] = system: epimastigotes of Trypanosoma cruzi (Y strain); assay: alamarBlue activity against epimastigotes of T. cruzi; assay type: cell-based; details: for IC50: Trypanosoma cruzi, 72 h of incubation, mean with standard deviation; for Epimastigotes T. cruzi SI: selectivity index CC50/IC50
Procedure: as §1, §2

[4] = alamarBlue cytotoxicity on murine macrophages; assay type: cell-based; details: mouse, J774A.1 macrophages; 24 h of incubation; read-out: Macrophages J744A.1 CC50
[5] = system: amastigotes of L. amazonensis; assay: alamarBlue activity against intracellular amastigotes of L. amazonensis in murine macrophages; assay type: cell-based, Leishmania amazonensis; details: for IC50: Leishmania amazonensis, Macrophage, 24 h of incubation, intracellular form in murine macrophages; for Amastigotes L. amazonensis SI: selectivity index CC50/IC50
Procedure: as §1
To determinate the IC50 against the intracellular form of the parasite amastigotes of L. amazonensis, the alamarBlue colorimetric method was also used. In a 96-well plate, murine macrophages were added in a concentration of 10^4 cells per well. After adherence of the cells, 10^5 promastigotes of the parasite were added to reach 1:10 cell:parasites per well. After 24 h of incubation at 37 °C with 5% of CO2 for the internalization of the parasite, the wells were washed, and serial dilutions of the compounds were added. After an incubation of 24 h with the compounds, the wells were washed, and the macrophages were broken with a solution of SDS (Sodium dodecyl sulfate) at 0.05% for 30 s. After adding fresh RPMI medium, we added 10% of alamarBlue, and the plates were incubated at 26 °C for 96 h. Finally, the fluorescence was measured by using the EnSpire Multimode Plate Reader® (PerkinElmer, Thermo Fisher Scientific, Madrid, Spain), and the IC50 of each compound was calculated.

[6] = system: T. cruzi; parameters: method as in PMID 17950283; details: read-out: IC50 against T. cruzi; cited from earlier work
[7] = system: promastigotes of L. amazonensis; assay: Plasmatic membrane permeability, SYTOX Green; assay type: cell-based, Leishmania amazonensis; details: IC90, 24 h
[8] = system: promastigotes of L. amazonensis; assay: Reactive oxygen species detection, CellROX Deep Red; assay type: cell-based, Leishmania amazonensis; details: IC90, 24 h
[9] = system: L. amazonensis; assay: Mitochondrial membrane potential, JC-1; assay type: cell-based, Leishmania amazonensis; details: IC90, 24 h
Procedure: The alterations on the mitochondrial membrane potential were measured by using JC-1® reagent. The results were expressed in percentage of variations in the mitochondrial membrane potential relative to the untreated control.
The alterations in the mitochondrial membrane potential were determined by using the JC-1 Mitochondrial Membrane Potential Assay Kit® (Cayman Chemical, Ann Arbor, MI, USA). […] Finally, using the EnSpire Multimode Plate Reader® (PerkinElmer, Thermo Fisher Scientific, Madrid, Spain), we measured the fluorescence, and the results were expressed in the percentage relative to the negative control (without any treatment), using the ratio 595 nm/535 nm (aggregates/monomers). All of the experiments were performed in triplicate in three different days (n = 3).

[10] = system: promastigotes of L. amazonensis; assay: Chromatin condensation, Hoechst 33342/propidium iodide; assay type: cell-based, Leishmania amazonensis; details: IC90, 24 h
[11] = system: epimastigotes of T. cruzi; assay: Reactive oxygen species detection, CellROX Deep Red; assay type: cell-based, Trypanosoma cruzi; details: IC90, 24 h
[12] = system: epimastigotes of T. cruzi; assay: Chromatin condensation, Hoechst 33342/propidium iodide; assay type: cell-based, Trypanosoma cruzi; details: IC90, 24 h
[13] = system: epimastigotes of T. cruzi
[14] = system: T. cruzi; assay: ATP levels, CellTiter-Glo; assay type: cell-based, Trypanosoma cruzi; details: IC90, 24 h, negative control = 100%
Procedure: (§3) The levels of ATP were measured by using CellTiter-Glo® reagent, and values of luminescence were obtained by the EnSpire Multimode Plate Reader®. Results were processed and represented in Figure 4 as the percentage of ATP relative to the negative control (without treatment) that corresponds with 100% of ATP level.
(§4) The levels of ATP in the wells were measured by using the CellTiter-Glo® Luminescent Cell Viability Assay (Promega, WI, USA). […] These volumes were transferred to a white plate, and 25 μL of kit was added to each well. After 10 min of incubation at room temperature, the luminescence was determined by using the EnSpire Multimode Plate Reader® (PerkinElmer), and the results were expressed as the percentage of production of ATP relative to the negative control (without any treatment). All of the experiments were performed in triplicate in three different days (n = 3).

[15] = system: L. amazonensis; assay: ATP levels, CellTiter-Glo; assay type: cell-based, Leishmania amazonensis; details: IC90, 24 h, negative control = 100%
Procedure: as §3, §4

[16] = system: promastigotes of L. donovani; assay: Chromatin condensation, Hoechst 33342/propidium iodide; assay type: cell-based, Leishmania donovani; details: IC90, 24 h
[17] = system: promastigotes of L. donovani

| SMILES | IC50 [1] [µM] | Promastigotes L. donovani SI [1] | IC50 [2] [µM] | Promastigotes L. amazonensis SI [2] | IC50 [3] [µM] | Epimastigotes T. cruzi SI [3] | CC50 at 24 h [4] [µM] | Amastigotes L. amazonensis SI [5] | also measured |
| --- | --- | --- | --- | --- | --- | --- | --- | --- | --- |
| C=C1CC[C@@H](O)[C@]2(C)CC[C@H]3C(=C)C(=O)O[C@@H]3[C@@H]12 [Reynosin (13), reynosin] | > 201 | <0.39 | 40.2 ± 8.78 | 1.94 | 58.2 ± 13.1 | 1.34 |  |  |  |
| C=C1C(=O)O[C@@H]2[C@H]3C(C)=CC[C@@H](O)[C@]3(C)CC[C@@H]12 [Santamarine (12), santamarine] | 12.1 ± 4.67 | 6.35 | > 101 | <0.77 | 9.74 ± 2.68 | 7.91 |  |  |  |
| C=C1CC[C@@H](C(C)C)/C=C/[C@@](C)(O)CC[C@H]1O [Nephthediol (10), (−) nephthediol] | > 105 | <0.22 | > 105 | <0.22 | > 105 | <0.22 | 23.58 ± 0.21 |  |  |
| C=C1C[C@@H]2OC(=O)C(=C)[C@H]2[C@H](O)/C=C(\C)CCC1=O [Tamirin (7), Tamirin] | 4.13 ± 1.25 | 5.65 | 11.7 ± 2.52 | 1.99 | > 69 | <0.34 | 23.3 ± 1.27 |  |  |
| C=C1CCC2C(=C)C(=O)OC2C=C(C)CCC1O (stereo not drawn) [Artemorin (1), artemorin] | > 201 |  | 40.9 ± 2.82 | >9.85 | 81 ± 12 | >4.97 | > 403 | >10.04 | IC50 [5]: 40.1 ± 3.44 µM |
| C=C1C(=O)O[C@H]2CC(=C)[C@H]3CCC(=C)[C@@H](O3)[C@@H](O)[C@H]12 [Dehydroxyisobadgerin (9), dehydroxyisobadgerin] | 34 ± 3.32 | 1.47 | 25.5 ± 3.2 | 1.96 | 59.8 ± 9.76 | 0.84 | 50 ± 13.1 |  |  |
| O=C(Cn1ccnc1[N+](=O)[O-])NCc1ccccc1 [Benznidazole, reference compound] |  |  |  |  |  |  | > 1540 |  |  |
| C=C1C(=O)O[C@H]2[C@H]1CC/C(C)=C/CC[C@@]1(C)O[C@@H]21 [Parthenolide (15), parthenolide] |  |  |  |  |  |  |  |  | IC50 [6]: 2.01 µM |
| C=C1C(=O)O[C@@H]2[C@@H]3[C@@](C)(CC[C@@H]12)[C@H](O)CC[C@]3(C)O [4b-Hydroxyarbusculin A (11), 4β-hydroxyarbusculin A] | > 201 |  | 76.4 ± 5.72 | >5.27 | > 201 |  | > 403 | >25.47 | Plasmatic membrane permeability [7]: increase on the plasmatic membrane permeability; Reactive oxygen species detection [8]: presence of red fluorescence; Mitochondrial membrane potential relative to the negative control [9]: 40.99%; IC50 [5]: 15.8 ± 1.01 µM; Amastigotes L. amazonensis SI ([5]; listed as 4β-hydroxyarbusculin A (11)): > 25.47; Chromatin condensation [10]: induced chromatin condensation |
| C=C1C(=O)O[C@H]2CC(=C)[C@@H](O)CC/C(C)=C/[C@@H](O)[C@H]12 [Tanachin (6), tanachin] | > 94.6 | <1.05 | > 94.6 | <1.05 | > 94.6 | <1.05 | 99.2 ± 4.43 |  |  |
| C=C1C(=O)O[C@@H]2/C=C(\C)[C@H](O)CC/C(C)=C/[C@H](O)[C@@H]12 [Tatridin A (4), tatridin A] | > 94.6 | <0.34 | > 94.6 | <0.34 | > 94.6 | <0.34 | 32.4 ± 6.55 |  |  |
| CCCCCCCCCCCCCCCCOP(=O)([O-])OCC[N+](C)(C)C [Miltefosine, reference compound] |  | 21.74 |  | 11.14 |  |  | 72.2 ± 3.06 | 23.17 |  |
| C=C1C(=O)O[C@H]2CC(=C)[C@H]3CC[C@@](C)(O)[C@@H](O3)[C@@H](O)[C@H]12 [Isobadgerin (8), isobadgerin] | > 89.2 | <1.01 | > 89.2 | <1.01 | > 89.2 | <1.01 | 89.7 ± 3.92 |  |  |
| C=C1C(=O)O[C@@H]2/C=C(\C)[C@H](O)CC/C(C)=C/[C@H](OC(C)=O)[C@@H]12 [Tatridin A acetate (5), tatridin A acetate] | > 81.6 | <0.24 | > 81.6 | <0.24 | > 81.6 | <0.24 | 19.3 ± 0.91 |  |  |
| C=C1CCC2C(=C)C(=O)OC2C=C(C)CCC1=O (stereo not drawn) [Anhydroartemorin (2), anhydroartemorin] | > 102 | <1.76 | 25.6 ± 5.88 | 7.00 | 13 ± 4.95 | 13.76 | 179 ± 2.27 | 24.06 | Reactive oxygen species detection [11]: intense fluorescence due to ROS detection; Plasmatic membrane permeability [7]: increase on the plasmatic membrane permeability; Chromatin condensation [12]: caused chromatin condensation; Plasmatic membrane permeability [13]: increase on the plasmatic membrane permeability; Percentage of ATP relative to the negative control [14]: 27.17%; Percentage of ATP relative to the negative control [15]: 28.76%; IC50 [5]: 7.44 ± 0.45 µM; Chromatin condensation [10]: induced chromatin condensation |
| C=C1C(=O)OC2C=C(C)CCC=C(COC(C)=O)CCC12 (mixture of isomers) [cis,trans-costunolide-14-acetate (3), cis,trans-costunolide-14-acetate] | 5.41 ± 1.28 | 9.43 | 8.62 ± 1 | 5.92 | 8.88 ± 0.91 | 5.75 | 51 ± 7.54 | 2.08 | Chromatin condensation [16]: blue and red fluorescence was produced; IC50 [5]: 24.6 ± 3.64 µM; Plasmatic membrane permeability [17]: increase on the plasmatic membrane permeability |
